This note sets out measurements from US20250333407A1, “Compounds and Their Use for Treatment of Hemoglobinopathies” (Bristol-Myers Squibb Company, priority 2024, published 2025).

Holding throughout (format): cell-based
The target of experiment [1] is T1, WIZ (Homo sapiens, UniProt O95785+Q96SW2).
T1 construct: HUDEP-2 cells engineered to express a HiBiT tag in either the WIZ (Widely interspaced zinc finger) or ZBTB7A
Nature of the experiment: HUDEP-2 WIZ HiBiT degradation assay. The following applies: HiBiT-tagged WIZ degradation in HUDEP-2 cells, 24 hours of treatment; read-out: WIZ EC50. As for the experimental part: (§1) WIZ Assay and ZBTB7A EC50 Assays. The HiBiT degradation assays for WIZ and ZBTB7A in HUDEP-2 cells were performed as described below. HUDEP-2 cells engineered to express a HiBiT tag in either the WIZ (Widely interspaced zinc finger) or ZBTB7A (Zinc Finger And BTB Domain Containing 7A) proteins were maintained in low attachment flasks in StemSpan SFEM II media supplemented with Penicillin-Streptomycin (50 U/mL), rhSCF (50 ng/mL), rhEPO (3 IU/mL), dexamethasone (0.4 μg/mL) and doxycycline (1 μg/mL). Prior to start of the assay, cell count and viability were measured by trypan blue exclusion using the Vi-cell XR cell viability analyzer.
For the HUDEP-2 WIZ HiBiT assay, cells were transferred to a 50 mL conical and centrifuged at 500 g for five minutes. Cells were resuspended in fresh StemSpan SFEM II media supplemented with Penicillin-Streptomycin (50 U/mL), rhSCF (50 ng/mL), rhEPO (3 IU/mL), dexamethasone (0.4 μg/mL) and doxycycline (1 μg/mL) at a density of 1.0×10^6 cells/ml. Forty microliters of cell suspension was dispensed into 384-well Low Flange White Flat Bottom Polystyrene TC-treated Microplates containing pre-dispensed compounds, using a VIAFLO 384 liquid hander, and placed in a 37° C. incubator with 5% CO2. […] After 24 hours of treatment, 40 μL Nano-Glo HiBiT Lytic Detection System reagent was dispensed into each well using a VIAFLO 384 liquid hander. Plates were incubated for 25 minutes at room temperature and the luminescence was read as relative luminescent units using the EnVision plate reader. EC50 and Y-min values were calculated using curves calculated from dotmatics software after the normalization to the DMSO control of 10 different concentrations: 10, 3.33, 1.11, 0.37, 0.12, 0.04 0.0137, 0.0046, 0.0015 and […] respectively.
(The HiBiT peptide binds its large partner to form an active luciferase.)

The subject of experiment [2] is HbF. In words: HbF HiBiT induction assay in HUDEP-2 cells. The note with it: HUDEP-2 cells with HiBiT tag in HBG1/2, 72 hours of treatment; area under the dose response curve, higher AUC = greater HbF induction. As for the experimental part: HbF HiBiT induction assay. The HiBiT induction assay for HbF in HUDEP-2 cells was performed as described below. HUDEP-2 cells engineered to express a HiBiT tag in HBG1/2 were maintained at a density of 0.1-1×10^6 cells/ml in StemSpan SFEM II supplemented with 1% penicillin/streptomycin, hSCF (50 ng/mL), erythropoietin (EPO; 3 IU/mL), dexamethasone (DEX; 0.4 μg/mL), and doxycycline hyclate (DOX; 1 μg/mL). The cells were cultured in low adherence flasks, in a humidified incubator, set at 37° C. with 5% CO2. Cell counts and viability were measured by trypan blue exclusion using the Vi-CELL XR cell viability analyzer and the cell growth was consistently maintained in log phase.
Prior to the start of experiments, HbF HiBiT-tagged HUDEP-2 cells were transferred to a 50 mL conical and centrifuged at 500×g for 5 minutes, the supernatant removed, and the pellet washed in 5 mL of 1×PBS. The washed cells were centrifuged again at 500×g for 5 minutes and resuspended in IMDM containing; 1×glutamine, 1×penicillin/streptomycin, holo-transferrin (330 μg/mL), heparin (2 IU/mL), r-human insulin (10 μg/mL), EPO (3 IU/mL), 5% human plasma, hSCF (100 ng/mL) and DOX (1 μg/mL) to a final density of 0.3×10^6 cells/mL. Forty microliters of cell suspension were dispensed into 384-well Low Flange White Flat Bottom Polystyrene TC-treated Microplates containing pre-dispensed compounds, using a VIAFLO 384 liquid hander, and placed in a humidified incubator at 37° C. with 5% CO2. […] After 72 hours of treatment, 40 μL of Nano-Glo HiBiT Lytic Solution (prepared according to manufacturer's instructions) were dispensed into each well using a VIAFLO 384 liquid handler, and the plates were shaken for 20 seconds. Plates were incubated for 20 minutes at room temperature, and the luminescence was read as relative luminescent units using an EnVision plate reader.
Dose response curves were generated, and EC50, Ymax, and then area under the curve (AUC) values were calculated. HbF induction was measured using the calculated area under the curve (AUC) value, with higher AUC values indicative of greater HbF induction relative to lower AUC values.

Experiment [3] deals with T2, ZBTB7A (Homo sapiens, UniProt O95365+Q96SW2).
T2 construct: HUDEP-2 cells engineered to express a HiBiT tag in either the WIZ (Widely interspaced zinc finger) or ZBTB7A
T2 sequence (O95365 whole entry): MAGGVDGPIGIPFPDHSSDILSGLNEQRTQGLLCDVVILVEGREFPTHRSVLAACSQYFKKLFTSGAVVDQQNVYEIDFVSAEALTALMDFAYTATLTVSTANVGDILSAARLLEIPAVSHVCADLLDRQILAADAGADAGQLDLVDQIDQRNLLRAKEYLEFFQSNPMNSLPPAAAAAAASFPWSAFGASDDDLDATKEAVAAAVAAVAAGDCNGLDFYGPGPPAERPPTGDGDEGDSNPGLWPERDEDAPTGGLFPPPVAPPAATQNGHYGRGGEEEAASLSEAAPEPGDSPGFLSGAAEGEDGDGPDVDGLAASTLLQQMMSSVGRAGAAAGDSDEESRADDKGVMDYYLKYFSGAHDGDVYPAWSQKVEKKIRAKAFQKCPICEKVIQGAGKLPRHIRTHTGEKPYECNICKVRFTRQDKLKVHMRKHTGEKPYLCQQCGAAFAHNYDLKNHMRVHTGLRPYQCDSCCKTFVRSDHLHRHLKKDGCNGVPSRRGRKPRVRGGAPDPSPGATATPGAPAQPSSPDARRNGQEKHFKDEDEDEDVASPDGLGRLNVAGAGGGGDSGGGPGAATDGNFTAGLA
T2 sequence (Q96SW2 whole entry): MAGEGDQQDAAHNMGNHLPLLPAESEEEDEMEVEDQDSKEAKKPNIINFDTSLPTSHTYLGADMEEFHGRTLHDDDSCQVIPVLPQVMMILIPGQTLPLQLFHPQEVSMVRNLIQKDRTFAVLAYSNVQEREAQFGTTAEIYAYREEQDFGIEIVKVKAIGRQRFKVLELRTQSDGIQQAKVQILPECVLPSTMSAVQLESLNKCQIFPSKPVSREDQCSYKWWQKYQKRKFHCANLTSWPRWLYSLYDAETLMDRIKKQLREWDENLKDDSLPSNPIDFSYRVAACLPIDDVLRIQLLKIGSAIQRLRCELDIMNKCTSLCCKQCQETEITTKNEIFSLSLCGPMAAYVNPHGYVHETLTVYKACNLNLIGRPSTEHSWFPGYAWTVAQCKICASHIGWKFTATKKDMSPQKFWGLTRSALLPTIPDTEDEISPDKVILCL
T2 sequence (Q16531 whole entry partner): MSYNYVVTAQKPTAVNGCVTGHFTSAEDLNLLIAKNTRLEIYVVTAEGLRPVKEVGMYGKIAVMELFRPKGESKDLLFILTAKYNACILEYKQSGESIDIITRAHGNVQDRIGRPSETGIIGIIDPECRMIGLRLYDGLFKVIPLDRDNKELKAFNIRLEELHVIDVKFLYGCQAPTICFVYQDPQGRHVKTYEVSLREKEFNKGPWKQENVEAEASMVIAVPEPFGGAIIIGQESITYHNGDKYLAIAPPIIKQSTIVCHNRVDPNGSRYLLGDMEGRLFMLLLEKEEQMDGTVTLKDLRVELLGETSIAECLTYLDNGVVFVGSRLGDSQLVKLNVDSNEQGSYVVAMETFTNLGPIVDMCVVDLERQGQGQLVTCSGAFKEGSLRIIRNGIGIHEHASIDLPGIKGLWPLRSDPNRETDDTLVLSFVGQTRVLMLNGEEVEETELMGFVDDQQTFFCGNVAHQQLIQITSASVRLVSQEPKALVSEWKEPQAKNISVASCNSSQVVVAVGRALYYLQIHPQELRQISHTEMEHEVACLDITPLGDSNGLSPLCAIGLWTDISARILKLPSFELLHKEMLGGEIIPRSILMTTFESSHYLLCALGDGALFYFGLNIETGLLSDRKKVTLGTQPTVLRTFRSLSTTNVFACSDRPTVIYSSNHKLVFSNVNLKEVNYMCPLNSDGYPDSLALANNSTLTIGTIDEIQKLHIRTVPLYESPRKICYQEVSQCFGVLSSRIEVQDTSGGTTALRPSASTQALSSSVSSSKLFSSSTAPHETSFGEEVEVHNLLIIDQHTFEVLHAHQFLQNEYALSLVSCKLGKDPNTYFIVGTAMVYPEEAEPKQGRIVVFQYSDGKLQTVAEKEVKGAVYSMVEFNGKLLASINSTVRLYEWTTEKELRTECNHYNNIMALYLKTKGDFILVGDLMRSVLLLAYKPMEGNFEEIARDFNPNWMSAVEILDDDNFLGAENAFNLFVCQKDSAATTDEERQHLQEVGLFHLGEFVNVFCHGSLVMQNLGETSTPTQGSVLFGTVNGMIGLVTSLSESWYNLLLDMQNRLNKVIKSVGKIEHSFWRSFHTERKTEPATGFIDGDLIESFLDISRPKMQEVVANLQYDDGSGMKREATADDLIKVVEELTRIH
Nature of the experiment: HUDEP-2 ZBTB7A HiBiT degradation assay. The note with it: HiBiT-tagged ZBTB7A degradation in HUDEP-2 cells, 24 hours of treatment; read-out: ZBTB7A EC50. The procedure: as §1
For the HUDEP-2 ZBTB7A HiBiT assay, cell count and viability were measured by trypan blue exclusion using the Vi-cell XR cell viability analyzer and the cells were transferred to a 50 mL conical and centrifuged at 500 g for five minutes. Cells were resuspended in fresh IMDM media supplemented with L-Glutamine (1×), Penicillin-Streptomycin (50 U/mL), holo-transferrin (330 μg/mL), heparin (2 IU/mL), r-human Insulin (10 μg/mL), rhEPO (3 IU/mL), rhSCF (100 ng/mL)+Dox (1 μg/mL) and 5% human plasma in low attachment flasks, which were placed in a 37° C. incubator with 5% CO2. After 48 hours, cell count and viability were measured by trypan blue exclusion using the Vi-cell XR cell viability analyzer. The HUDEP-2 ZBTB7A cells were transferred to a 50 mL conical, centrifuged at 500 g for five minutes and resuspended at a density of 1.0×10^6 cells/ml in IMDM media supplemented with L-Glutamine (1×), Penicillin-Streptomycin (50 U/mL), holo-transferrin (330 μg/mL), heparin (2 IU/mL), r-human Insulin (10 μg/mL), rhEPO (3 IU/mL), rhSCF (100 ng/mL)+Dox (1 μg/mL) and 5% human plasma. Forty microliters of cell suspension was dispensed into 384-well Low Flange White Flat Bottom Polystyrene TC-treated Microplates containing pre-dispensed compounds, using a VIAFLO 384 liquid hander, and placed in a 37° C. incubator with 5% CO2. […] After 24 hours of treatment, 40 μL Nano-Glo HiBiT Lytic Detection System reagent was dispensed into each well using a VIAFLO 384 liquid hander. Plates were incubated for 25 minutes at room temperature and the luminescence was read as relative luminescent units using the EnVision plate reader. EC50 and Y-min values were calculated using curves calculated from dotmatics software after the normalization to the DMSO control of 10 different concentrations: 10, 3.33, 1.11, 0.37, 0.12, 0.04 0.0137, 0.0046, 0.0015 and […] respectively.

T1 sequence (O95785 whole entry): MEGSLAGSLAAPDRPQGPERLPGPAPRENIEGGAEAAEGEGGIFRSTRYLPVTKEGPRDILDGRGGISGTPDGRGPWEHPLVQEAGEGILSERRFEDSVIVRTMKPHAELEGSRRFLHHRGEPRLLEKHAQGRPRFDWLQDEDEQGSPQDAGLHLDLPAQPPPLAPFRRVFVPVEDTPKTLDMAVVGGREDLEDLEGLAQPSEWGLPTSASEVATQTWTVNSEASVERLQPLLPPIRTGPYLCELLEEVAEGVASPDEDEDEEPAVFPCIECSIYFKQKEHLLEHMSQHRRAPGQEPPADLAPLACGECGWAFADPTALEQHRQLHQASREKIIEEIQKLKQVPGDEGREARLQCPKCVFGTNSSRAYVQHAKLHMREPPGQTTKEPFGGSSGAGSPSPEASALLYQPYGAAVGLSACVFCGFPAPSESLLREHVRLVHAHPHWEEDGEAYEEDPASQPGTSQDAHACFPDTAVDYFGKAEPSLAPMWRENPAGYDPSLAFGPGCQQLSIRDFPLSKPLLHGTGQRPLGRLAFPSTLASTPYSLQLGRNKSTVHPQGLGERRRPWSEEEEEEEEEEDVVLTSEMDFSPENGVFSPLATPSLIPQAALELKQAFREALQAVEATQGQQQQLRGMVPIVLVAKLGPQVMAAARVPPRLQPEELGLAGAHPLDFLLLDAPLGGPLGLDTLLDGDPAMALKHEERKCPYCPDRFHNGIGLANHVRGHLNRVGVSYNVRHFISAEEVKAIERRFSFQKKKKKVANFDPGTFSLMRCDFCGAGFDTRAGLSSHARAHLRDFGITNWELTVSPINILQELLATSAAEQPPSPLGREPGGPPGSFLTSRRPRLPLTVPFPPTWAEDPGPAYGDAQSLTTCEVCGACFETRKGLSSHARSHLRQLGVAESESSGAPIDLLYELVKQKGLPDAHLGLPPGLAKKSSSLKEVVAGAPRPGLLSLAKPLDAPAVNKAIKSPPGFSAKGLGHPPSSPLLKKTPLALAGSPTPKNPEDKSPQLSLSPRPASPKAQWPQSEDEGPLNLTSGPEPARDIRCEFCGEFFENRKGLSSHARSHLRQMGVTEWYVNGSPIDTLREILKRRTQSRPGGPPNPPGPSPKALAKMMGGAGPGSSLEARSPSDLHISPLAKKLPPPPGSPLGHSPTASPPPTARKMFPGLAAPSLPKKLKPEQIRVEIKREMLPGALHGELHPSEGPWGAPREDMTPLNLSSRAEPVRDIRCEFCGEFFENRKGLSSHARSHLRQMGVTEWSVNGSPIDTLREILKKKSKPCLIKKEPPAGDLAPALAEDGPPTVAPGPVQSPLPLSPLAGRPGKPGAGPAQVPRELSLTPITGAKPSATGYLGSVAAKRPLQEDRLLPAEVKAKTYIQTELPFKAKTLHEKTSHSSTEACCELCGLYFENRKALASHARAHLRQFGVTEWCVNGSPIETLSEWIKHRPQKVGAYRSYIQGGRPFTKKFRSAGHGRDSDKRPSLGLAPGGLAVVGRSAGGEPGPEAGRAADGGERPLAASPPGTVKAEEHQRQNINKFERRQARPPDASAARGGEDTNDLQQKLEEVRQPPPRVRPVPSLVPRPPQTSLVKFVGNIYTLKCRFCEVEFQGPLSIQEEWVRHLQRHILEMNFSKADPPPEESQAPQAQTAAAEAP
T1 sequence (Q96SW2 whole entry): as the sequence (Q96SW2 whole entry) above
T1 sequence (Q16531 whole entry partner): as the sequence (Q16531 whole entry partner) above

For the compound `Cc1cc(-c2cc3c(cc2Nc2cccc4c2C(=O)N(C2CCC(=O)NC2=O)C4=O)N(C)C(=O)CO3)ccn1` (centres unmarked) [Compound 2, 2-(2,6-dioxopiperidin-3-yl)-4-((4-methyl-7-(2-methylpyridin-4-yl)-3-oxo-3,4-dihydro-2H-benzo[b][1,4]oxazin-6-yl)amino)isoindoline-1,3-dione], the DC50 amounted to 0.006 µM in experiment [1] and 0.011 µM in experiment [3]. Besides, in experiment [2], the “HBF AUC” value is “+++ (+++ = AUC ≥ 150)”.
Take `CC(=O)N1CCCC(c2cc3c(cc2Nc2cccc4c2C(=O)N([C@H]2CCC(=O)NC2=O)C4=O)N(C)C(=O)CO3)C1` (stereo partly drawn) [Compound 63, 4-((7-(1-acetylpiperidin-3-yl)-4-methyl-3-oxo-3,4-dihydro-2H-benzo[b][1,4]oxazin-6-yl)amino)-2-((S)-2,6-dioxopiperidin-3-yl)isoindoline-1,3-dione]: the results for the DC50 in experiment [1] and in experiment [3] were 0.016 µM and 0.014 µM, respectively. Moreover, in experiment [2], the “HBF AUC” value is listed as “++ (++ = 100 ≤ AUC < 150)”.
Taken in the same sequence, the figures for `CCO[C@H]1CC[C@H](c2cc3c(cc2Nc2cccc4c2C(=O)N([C@H]2CCC(=O)NC2=O)C4=O)N(C)C(=O)CO3)CC1` [Compound 44, 2-((S)-2,6-dioxopiperidin-3-yl)-4-((7-((1r,4S)-4-ethoxycyclohexyl)-4-methyl-3-oxo-3,4-dihydro-2H-benzo[b][1,4]oxazin-6-yl)amino)isoindoline-1,3-dione] were 0.004 µM, 0.006 µM and “++ (++ = 100 ≤ AUC < 150)”.
For `Cc1cc(-c2cc3c(cc2Nc2cccc4c2C(=O)N([C@H]2CCC(=O)NC2=O)C4=O)N(C2CC2)C(=O)CO3)ccn1` [Compound 26, (S)-4-((4-cyclopropyl-7-(2-methylpyridin-4-yl)-3-oxo-3,4-dihydro-2H-benzo[b][1,4]oxazin-6-yl)amino)-2-(2,6-dioxopiperidin-3-yl)isoindoline-1,3-dione], the DC50 was 0.013 µM in experiment [1] and 0.098 µM in experiment [3]. The “HBF AUC” value in experiment [2] is listed as “++ (++ = 100 ≤ AUC < 150)”.
Take `Cc1cc(-c2cc3c(cc2Nc2cccc4c2C(=O)N([C@H]2CCC(=O)NC2=O)C4=O)N(C)C(=O)[C@@H](C)C3)ccn1` [Compound 86, 4-(((S)-1,3-dimethyl-6-(2-methylpyridin-4-yl)-2-oxo-1,2,3,4-tetrahydroquinolin-7-yl)amino)-2-((S)-2,6-dioxopiperidin-3-yl)isoindoline-1,3-dione]: the figures for the DC50 in experiment [1] and in experiment [3] were 0.009 µM and 0.048 µM, respectively. Also, the “HBF AUC” value in experiment [2] was “+ (+ = 15 ≤ AUC < 100)”.
Take `Cc1cncc(-c2cc3c(cc2Nc2cccc4c2C(=O)N([C@H]2CCC(=O)NC2=O)C4=O)N(C)C(=O)CO3)c1` [Compound 41, (S)-2-(2,6-dioxopiperidin-3-yl)-4-((4-methyl-7-(5-methylpyridin-3-yl)-3-oxo-3,4-dihydro-2H-benzo[b][1,4]oxazin-6-yl)amino)isoindoline-1,3-dione]: the figures for the DC50 in experiment [1] and in experiment [3] were 0.01 µM and 0.017 µM, respectively. Moreover, the “HBF AUC” value in experiment [2] is listed as “+++ (+++ = AUC ≥ 150)”.
For `COc1ccc(-c2cc3c(cc2Nc2cccc4c2C(=O)N([C@H]2CCC(=O)NC2=O)C4=O)N(C)C(=O)O[C@H]3C)cc1F` [Compound 71, 2-((S)-2,6-dioxopiperidin-3-yl)-4-(((S)-6-(3-fluoro-4-methoxyphenyl)-1,4-dimethyl-2-oxo-1,4-dihydro-2H-benzo[d][1,3]oxazin-7-yl)amino)isoindoline-1,3-dione], in that order: 0.016 µM, 0.01 µM and “++ (++ = 100 ≤ AUC < 150)”.
For `Cc1cc(-c2c(Nc3cccc4c3C(=O)N(C3CCC(=O)NC3=O)C4=O)cc3c(c2F)OCC(=O)N3C)cc(C(F)F)n1` (centres unmarked) [Compound 78, 4-((7-(2-(difluoromethyl)-6-methylpyridin-4-yl)-8-fluoro-4-methyl-3-oxo-3,4-dihydro-2H-benzo[b][1,4]oxazin-6-yl)amino)-2-(2,6-dioxopiperidin-3-yl)isoindoline-1,3-dione], the DC50 turned out to be 0.076 µM in experiment [1] and 0.07 µM in experiment [3]. Moreover, the “HBF AUC” value in experiment [2] is reported as “++ (++ = 100 ≤ AUC < 150)”.
`CCN1C(=O)COc2cc(-c3cc(C)nc(C)c3)c(Nc3cccc4c3C(=O)N(C3CCC(=O)NC3=O)C4=O)cc21` (centres unmarked) [Compound 56, 4-((7-(2,6-dimethylpyridin-4-yl)-4-ethyl-3-oxo-3,4-dihydro-2H-benzo[b][1,4]oxazin-6-yl)amino)-2-(2,6-dioxopiperidin-3-yl)isoindoline-1,3-dione]: the DC50 came to 0.02 µM in experiment [1] and 0.043 µM in experiment [3]. Moreover, in experiment [2], the “HBF AUC” value was “++ (++ = 100 ≤ AUC < 150)”.
Take `Cc1cc(-c2c(Nc3cccc4c3C(=O)N(C3CCC(=O)NC3=O)C4=O)cc3c(c2F)OCC(=O)N3C)cc(C(F)F)n1` (centres unmarked) [Compound 77, 4-((7-(2-(difluoromethyl)-6-methylpyridin-4-yl)-8-fluoro-4-methyl-3-oxo-3,4-dihydro-2H-benzo[b][1,4]oxazin-6-yl)amino)-2-(2,6-dioxopiperidin-3-yl)isoindoline-1,3-dione]: the DC50 in experiment [1] turned out to be 0.112 µM; in experiment [3] it was 0.102 µM. Moreover, the “HBF AUC” value in experiment [2] is “+ (+ = 15 ≤ AUC < 100)”.
In the case of `Cc1cc(-c2cc3c(cc2Nc2cccc4c2C(=O)N(C2CCC(=O)NC2=O)C4=O)N(C)C(=O)C(C)(C)C3)ccn1` (centres unmarked) [Compound 85, 2-(2,6-dioxopiperidin-3-yl)-4-((1,3,3-trimethyl-6-(2-methylpyridin-4-yl)-2-oxo-1,2,3,4-tetrahydroquinolin-7-yl)amino)isoindoline-1,3-dione], the DC50 turned out to be 0.026 µM in experiment [1] and 0.043 µM in experiment [3].
